We go through 13 compounds from PubChem BioAssay (NCI).

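Test compounds were applied to cells in 96-well plates for 48 hours at 5 doses. TGI marks complete inhibition of growth.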

Holding throughout (assay): NCI-60 cell line screen, 48 h
For test [1], the system named is HOP-62 NSCLC.
Test [2] concerns IGROV1 ovarian.
For test [3], the system named is SK-MEL-5 melanoma.
The test system of test [4] is TK-10 renal.
Test [5] has as its system A549 NSCLC.
Test [6] relates to K-562 leukemia.
For test [7], the system named is SF-539 CNS.
The subject of test [8] is PC-3 prostate.
Test [9] concerns SK-MEL-2 melanoma.
In test [10] the test system is HCT-15 colon.
Test [11] deals with CAKI-1 renal.
Test [12] has as its system MDA-N.
Test [13] concerns HL-60(TB) leukemia.
Test [14] deals with HCT-116 colon.
The subject of test [15] is UACC-62 melanoma.
Test [16] relates to HOP-92 NSCLC.
The subject of test [17] is CCRF-CEM leukemia.
Test [18] deals with BT-549 breast.
Test [19] deals with MDA-MB-231 breast.

As for `CC1(C)OP(=O)(c2ccccc2)C=C1Br` (stereo not drawn), the TGI in [1], in [2], in [3], in test [4], in test [5] and in [6] was above 100 µM in each case. Moreover, the TGI in test [7], in [8], in [9], in test [10], in test [11] and in test [12] was above 100 µM in each case. Further, the TGI in test [13], in test [14], in test [15] and in test [16] was above 100 µM each time.
In the case of `Cc1c(/C=N/NC(=S)Nc2ccc([N+](=O)[O-])cc2)c(=O)n(-c2ccccc2)n1C`, the TGI in [1] was 23.8 µM; in test [2], 25.9 µM; in test [3] it was above 100 µM; in test [4] it was 26.3 µM; in test [6] it was above 100 µM; in [7], 30 µM. Besides, the TGI is 76.8 µM in [8]; 30.5 µM in [9]; above 100 µM in test [17]; 49.4 µM in test [10]; 18.9 µM in test [11]; above 100 µM in test [13]. Also, the TGI turned out to be 36.5 µM in test [18]; 52.3 µM in test [14]; 33.7 µM in [15]; 25.5 µM in test [16]; 49.2 µM in test [19].
For `N[C@@H]1c2c(Br)sc(Br)c2C(=O)[C@H]1Br`, the TGI was above 93.6 µM in test [1]; 45.9 µM in test [2]; above 100 µM in test [3]; above 100 µM in [4]; above 100 µM in test [5]; above 67 µM in [6]. The TGI in [7] was above 100 µM; in [8] it was above 84.8 µM; in test [9], above 100 µM; in test [17] it was above 22.6 µM; in [10], 60.8 µM; in test [11], 66.4 µM. For the same compound, the TGI was above 24.8 µM in test [13]; 43.1 µM in [18]; 39.9 µM in test [14]; 59.3 µM in test [15]; 33 µM in [16]; 48.5 µM in test [19].
For the compound `CC1(C)CC(=O)c2c(nc3c(ccc4ccccc43)c2-c2ccc(NC(=O)CCCCCCCCC(=O)Nc3ccc(-c4c5c(nc6c4ccc4ccccc46)CC(C)(C)CC5=O)cc3)cc2)C1`, the TGI in test [1], in test [2], in [3], in [4], in test [5] and in [6] was above 100 µM each time. In addition, the TGI in test [7], in [8], in test [9], in test [17], in test [11] and in test [12] was above 100 µM in each case. Further, the TGI in test [13], in test [14] and in test [19] was above 100 µM in each case.
For the compound `CC(=O)c1cc2sc3ccccc3c2[nH]1`, the TGI in [1], in test [3], in test [4], in [5], in [6] and in test [7] was above 100 µM in each case. Further, the TGI in test [8], in [9], in test [10], in test [11], in [12] and in test [14] was above 100 µM each time. The TGI in [15], in test [16] and in test [19] was above 100 µM throughout.
With `Brc1ccc2[nH]cc([C@@H]3CN[C@@H](c4c[nH]c5ccc(Br)cc45)CN3)c2c1`, the TGI in test [1] was determined as 23.1 µM; in test [2], 16.6 µM; in [3], 20.8 µM; in test [4] it was 16.4 µM; in test [5], 19.4 µM; in [6] it was 3.74 µM. For the same compound, the TGI came out at 24.9 µM in [7]; 14.7 µM in test [8]; 27.8 µM in test [9]; 5.41 µM in [17]; 24.8 µM in test [10]; 21.9 µM in test [11]. In addition, the TGI in test [13] came to 4.24 µM; in test [18], 30.8 µM; in [14], 9.2 µM; in [15], 21.8 µM; in test [16], 7.57 µM; in test [19] it was 14.2 µM.
Turning to `N#CC(NNC(=O)Cc1ccccc1)c1ccc(O)cc1` (stereo not drawn), the TGI in test [1], in test [2], in test [3], in [4], in [5] and in test [6] was above 100 µM each time. In addition, the TGI in [7], in test [9], in test [17], in test [10], in test [11] and in test [13] was above 100 µM in each case. Besides, the TGI in test [14], in test [15] and in test [16] was above 100 µM in each case.
On to `Cc1ccc(OC2CC(n3cnc4c(=O)[nH]c(Br)nc43)OC2Oc2ccc(C)cc2)cc1` (stereo not drawn), for which the TGI was 49.5 µM in test [1]; 66.9 µM in [2]; 58.7 µM in test [3]; 49.8 µM in test [4]; 69.7 µM in test [5]; 51.1 µM in [6]. Besides, the TGI in test [7] is 50.1 µM; in [8], 49.8 µM; in test [9], 75.8 µM; in [17], 53.7 µM; in [10] it was 91.6 µM; in test [11], 75.7 µM. In addition, the TGI in test [13] was 59.2 µM; in test [18], 67.5 µM; in [14] it was above 100 µM; in test [15], 53.7 µM; in [16], 45.9 µM; in [19] it was 46.9 µM.
Turning to `Cn1c(=O)oc2cc(C(=O)CN3CCN(Cc4ccc5c(c4)OCO5)CC3)c(Cl)cc21`, the TGI in test [1], in [2], in test [3], in test [6], in test [7] and in [8] was above 100 µM throughout. In addition, the TGI in test [9], in [17], in [10], in [11], in test [12] and in test [13] was above 100 µM each time. For the same compound, the TGI in [14], in [15] and in test [19] was above 100 µM in each case.
Turning to `O=C1NC(=S)NC1C(Cc1ccccc1)c1ccco1` (stereo not drawn), the TGI in [2], in [3], in test [4], in [5], in test [6] and in test [7] was above 100 µM each time. The TGI in test [17], in test [10], in test [11], in test [12], in [13] and in test [14] was above 100 µM each time. In addition, the TGI in [16] and in test [19] was above 100 µM each time.
For the compound `CNc1cccc(-c2cc(=O)c3cc4c(cc3[nH]2)OCO4)c1`, the TGI in test [2] was above 100 µM; in test [3] it was 6.92 µM; in [4] it was 77.5 µM; in test [5], above 91.8 µM; in [6], above 19 µM; in [7], 0.573 µM. Moreover, the TGI in [8] is above 100 µM; in test [9] it was above 44.5 µM; in [17] it was 11 µM; in test [10] it was 3.66 µM; in test [11], above 100 µM; in test [13], 2.89 µM. For the same compound, the TGI in test [18] was above 100 µM; in test [14] it was above 100 µM; in test [15] it was above 100 µM; in test [16], above 100 µM; in test [19], 4.52 µM.
For the compound `CC1(C)OC[C@@H]([C@H](C=O)OCc2ccccc2)O1`, the TGI in test [1], in test [2], in test [3], in [4], in test [5] and in test [6] was above 100 µM each time. Moreover, the TGI in test [8], in test [9], in test [17], in test [10], in test [12] and in test [14] was above 100 µM each time. For the same compound, the TGI in test [15], in test [16] and in test [19] was above 100 µM each time.
Regarding `CC1OC(n2ccc3ccc([N+](=O)[O-])cc32)C(O)C(O)C1O` (stereo not drawn), the TGI in test [1], in test [2], in test [3], in test [4], in test [5] and in test [6] was above 100 µM throughout. For the same compound, the TGI in [7], in test [9], in [17], in test [10], in test [11] and in [13] was above 100 µM each time. For the same compound, the TGI in [14], in test [15] and in [16] was above 100 µM throughout.
